Bridge positions count the residues as written; N and C are the ends. Square brackets hold non-standard residues; d marks the D form. Peptide text beside a SMILES is read from it. Phe(4-COOH) = N[C@@H](Cc1ccc(C(=O)O)cc1)C(=O)O; Phe(3,4-F2) = N[C@@H](Cc1ccc(F)c(F)c1)C(=O)O; 2Nal = N[C@@H](Cc1ccc2ccccc2c1)C(=O)O; R8 = C=CCCCCCC[C@@](C)(N)C(=O)O; Cba = N[C@@H](CC1CCC1)C(=O)O; S5 = C=CCCC[C@](C)(N)C(=O)O; Nle = CCCC[C@H](N)C(=O)O
Columns and labels:
RKO = assay: Cell viability assay (MTT), RKO; details: read-out: RKO EC50 (72 h)
Caspase 3 = Caspase 3 detection assay in SJSA1 cells; type: cell-based; details: SJSA1, 48 h, Caspase 3 activation over DMSO-treated cells
SJSA-1 cells = assay: Cell lysis by peptidomimetic macrocycles (LDH release); type: cell-based; details: SJSA-1, 1 h
In short: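 Membrane lysis measured as supernatant LDH after a 1 h, 37 °C exposure of SJSA-1 cells, held in RPMI with 1% FBS, to macrocycles at final 6.25-50 μM with 0.5% DMSO. Lytic references were 10 μM melittin and 1% Triton X-100; DMSO alone served as non-lytic control.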

Structure (SMILES)	EC50 (RKO) [µM]	caspase 0.3 μM (Caspase 3)	caspase 3 μM (Caspase 3)	caspase 10 μM (Caspase 3)	caspase 30 μM (Caspase 3)	6.25 μM % Lysed cells (1 h LDH) (SJSA-1 cells) [%]	25 μM % Lysed cells (1 h LDH) (SJSA-1 cells) [%]	50 μM % Lysed cells (1 h LDH) (SJSA-1 cells) [%]	caspase 1 μM (Caspase 3; 1 μM)
CCCC[C@H](NC(=O)[C@H](C)NC(=O)[C@H](C)NC(=O)[C@]1(C)CCCC=CCCCCCC[C@@](C)(NC(=O)[C@H](Cc2ccccc2)NC(=O)[C@@H](NC(=O)[C@H](CC(C)C)NC(C)=O)[C@@H](C)O)C(=O)N[C@@H](C)C(=O)N[C@@H](Cc2ccc(O)cc2)C(=O)N(C)[C@@H](Cc2c[nH]c3ccccc23)C(=O)N[C@@H](C)C(=O)N[C@@H](CCC(N)=O)C(=O)N[C@@H](CC(C)C)C(=O)N1)C(=O)N[C@@H](C)C(N)=O (single isomer, unassigned) [compound 386]	< 5	–	–	–	–	–	–	–	–
CCCC[C@H](NC(=O)[C@H](C)NC(=O)[C@H](C)NC(=O)[C@]1(C)CCCC=CCCCCCC[C@@](C)(NC(=O)[C@H](Cc2ccccc2)NC(=O)[C@@H](NC(=O)[C@H](CC(C)C)NC(C)=O)[C@@H](C)O)C(=O)N[C@@H](C)C(=O)N[C@@H](Cc2ccc(O)cc2)C(=O)N[C@@H](Cc2c[nH]c3ccccc23)C(=O)NC(C)(C)C(=O)N[C@@H](CCC(N)=O)C(=O)N[C@@H](CC(C)C)C(=O)N1)C(=O)N[C@@H](C)C(N)=O (single isomer, unassigned) [compound 390]	< 5	–	–	–	–	–	–	–	–
CC(C)C[C@H](NC(=O)CN(C)C)C(=O)N[C@H](C(=O)N[C@@H](Cc1ccccc1)C(=O)N[C@]1(C)CCCCCCC=CCCC[C@@](C)(C(=O)N[C@@H](C)C(=O)N[C@@H](C)C(=O)N[C@@H](C)C(=O)N[C@@H](C)C(=O)N[C@@H](C)C(=O)N[C@H](C)C(N)=O)NC(=O)[C@H](CC(C)C)NC(=O)[C@H](CCC(N)=O)NC(=O)[C@H](C)NC(=O)[C@H](Cc2c[nH]c3ccccc23)NC(=O)[C@H](Cc2ccc(O)cc2)NC(=O)[C@H](C)NC1=O)[C@@H](C)O (single isomer, unassigned) [compound 436]	< 5	–	–	–	–	–	–	–	–
CC[C@H](C)[C@H](NC(=O)[C@H](C)NC(=O)[C@H](C)NC(=O)[C@]1(C)CCCC=CCCCCCC[C@@](C)(NC(=O)[C@H](Cc2ccccc2)NC(=O)[C@@H](NC(=O)[C@H](CC(C)C)NC(=O)CN(C)C)[C@@H](C)O)C(=O)N[C@@H](CCC(=O)O)C(=O)N[C@@H](Cc2ccc(C(=O)O)cc2)C(=O)N[C@@H](Cc2c[nH]c3ccccc23)C(=O)N[C@@H](C)C(=O)N[C@@H](CCC(N)=O)C(=O)N[C@@H](CC2CCC2)C(=O)N1)C(=O)N[C@H](C)C(N)=O (single isomer, unassigned) [compound 440]	15 to 30	–	–	–	–	–	–	–	–
CCCC[C@H](NC(=O)[C@H](C)NC(=O)[C@H](C)NC(=O)[C@]1(C)CCCC=CCCCCCC[C@@](C)(NC(=O)[C@H](Cc2ccccc2)NC(=O)[C@@H](NC(=O)[C@H](CC(C)C)NC(=O)CN(C)C)[C@@H](C)O)C(=O)N[C@@H](C)C(=O)N[C@@H](Cc2ccc(O)cc2)C(=O)N[C@@H](Cc2c[nH]c3ccccc23)C(=O)N[C@@H](C)C(=O)N[C@@H](CCC(N)=O)C(=O)N[C@@H](CC(C)C)C(=O)N1)C(=O)N[C@@H](C)C(N)=O (single isomer, unassigned) [compound 442]	< 5	–	–	–	–	–	–	–	–
CC(=O)N[C@@H](CC(C)C)C(=O)N[C@H](C(=O)N[C@@H](Cc1ccccc1)C(=O)N[C@]1(C)CCCCCCC=CCCC[C@@](C)(C(=O)N[C@@H](CO)C(=O)N[C@@H](C)C(=O)N[C@@H](C)C(N)=O)NC(=O)[C@H](CC(C)C)NC(=O)[C@H](C)NC(=O)[C@H](C)NC(=O)[C@H](Cc2c[nH]c3ccccc23)NC(=O)[C@H](Cc2c[nH]cn2)NC(=O)[C@H](C)NC1=O)[C@@H](C)O [compound 197] (Ac-LTF[R8]AHWAAL[S5]SAA-NH2; staple 4-11)	–	1	1	10	20	1	−1	−2	–
CC(=O)N[C@@H](CC(C)C)C(=O)N[C@H](C(=O)N[C@@H](Cc1ccccc1)C(=O)N[C@]1(C)CCCCCCC=CCCC[C@@](C)(C(=O)N[C@@H](C)C(=O)N[C@@H](Cc2c[nH]cn2)C(=O)N[C@@H](Cc2ccccc2)C(=O)N[C@@H](C)C(N)=O)NC(=O)[C@H](CC(C)C)NC(=O)[C@H](C)NC(=O)[C@H](C)NC(=O)[C@H](Cc2c[nH]c3ccccc23)NC(=O)[C@H](Cc2ccc(O)cc2)NC(=O)[C@H](C)NC1=O)[C@@H](C)O [compound 204] (Ac-LTF[R8]AYWAAL[S5]AHFA-NH2; staple 4-11)	–	1	4	10	10	4	2	0	–
CCCC[C@H](NC(=O)[C@H](C)NC(=O)[C@H](C)NC(=O)[C@]1(C)CCCC=CCCCCCC[C@@](C)(NC(=O)[C@H](Cc2ccccc2)NC(=O)[C@@H](NC(=O)[C@H](CCC(=O)O)NC(C)=O)[C@@H](C)O)C(=O)N[C@@H](C)C(=O)N[C@@H](Cc2ccc(O)cc2)C(=O)N[C@@H](Cc2c[nH]c3ccccc23)C(=O)N[C@@H](C)C(=O)N[C@@H](CCC(N)=O)C(=O)N[C@@H](CC2CCC2)C(=O)N1)C(=O)N[C@@H](C)C(N)=O [compound 237] (Ac-ETF[R8]AYWAQ[Cba][S5]AA[Nle]A-NH2; staple 4-11)	–	1	5	9	15	0	7	55	–
CCCC[C@H](NC(=O)[C@H](C)NC(=O)[C@H](CO)NC(=O)[C@]1(C)CCCC=CCCCCCC[C@@](C)(NC(=O)[C@H](Cc2ccc(F)c(F)c2)NC(=O)[C@@H](NC(=O)[C@H](CC(C)C)NC(C)=O)[C@@H](C)O)C(=O)N[C@@H](CCC(=O)O)C(=O)N[C@@H](Cc2ccc(O)cc2)C(=O)N[C@@H](Cc2c[nH]c3ccccc23)C(=O)N[C@@H](C)C(=O)N[C@@H](CCC(N)=O)C(=O)N[C@@H](CC2CCC2)C(=O)N1)C(=O)N[C@@H](C)C(N)=O [compound 243] (Ac-LT[Phe(3,4-F2)][R8]EYWAQ[Cba][S5]SA[Nle]A-NH2; staple 4-11)	–	1	2	5	23	4	39	64	–
CCCC[C@H](NC(=O)[C@H](C)NC(=O)[C@H](CO)NC(=O)[C@]1(C)CCCC=CCCCCCC[C@@](C)(NC(=O)[C@H](Cc2ccccc2)NC(=O)[C@@H](NC(=O)[C@H](CC(C)C)NC(C)=O)[C@@H](C)O)C(=O)N[C@@H](CCC(=O)O)C(=O)N[C@@H](Cc2ccc(C(=O)O)cc2)C(=O)N[C@@H](Cc2c[nH]c3ccccc23)C(=O)N[C@@H](C)C(=O)N[C@@H](CCC(N)=O)C(=O)N[C@@H](CC2CCC2)C(=O)N1)C(=O)N[C@@H](C)C(N)=O [compound 244] (Ac-LTF[R8]E[Phe(4-COOH)]WAQ[Cba][S5]SA[Nle]A-NH2; staple 4-11)	–	1	2	7	17	0	0	4	–
CCCC[C@H](NC(=O)[C@H](C)NC(=O)[C@H](CO)NC(=O)[C@]1(C)CCCC=CCCCCCC[C@@](C)(NC(=O)[C@H](Cc2ccccc2)NC(=O)[C@@H](NC(=O)[C@H](CC(C)C)NC(C)=O)[C@@H](C)O)C(=O)N[C@@H](CCC(=O)O)C(=O)N[C@@H](Cc2ccc(O)cc2)C(=O)N[C@@H](Cc2c[nH]c3ccccc23)C(=O)N[C@@H](CO)C(=O)N[C@@H](CCC(N)=O)C(=O)N[C@@H](CC2CCC2)C(=O)N1)C(=O)N[C@@H](C)C(N)=O [compound 245] (Ac-LTF[R8]EYWSQ[Cba][S5]SA[Nle]A-NH2; staple 4-11)	–	1	3	9	16	1	11	56	–
CC[C@H](C)[C@H](NC(=O)[C@H](C)NC(=O)[C@H](C)NC(=O)[C@]1(C)CCCC=CCCCCCC[C@@](C)(NC(=O)[C@H](Cc2ccccc2)NC(=O)[C@@H](NC(=O)[C@H](CC(C)C)NC(C)=O)[C@@H](C)O)C(=O)N[C@@H](CCC(=O)O)C(=O)N[C@@H](Cc2ccc(O)cc2)C(=O)N[C@@H](Cc2c[nH]c3ccccc23)C(=O)N[C@@H](C)C(=O)N[C@@H](CCC(N)=O)C(=O)N[C@@H](CC2CCC2)C(=O)N1)C(=O)N[C@H](C)C(N)=O [compound 247] (Ac-LTF[R8]EYWAQ[Cba][S5]AAI[dA]-NH2; staple 4-11)	–	1	3	11	24	0	0	4	–
CC(=O)N[C@@H](CC(C)C)C(=O)N[C@H](C(=O)N[C@@H](Cc1ccccc1)C(=O)N[C@]1(C)CCCCCCC=CCCC[C@@](C)(C(=O)N[C@@H](CO)C(=O)N[C@@H](C)C(=O)N[C@@H](C)C(N)=O)NC(=O)[C@H](CC2CCC2)NC(=O)[C@H](CCC(N)=O)NC(=O)[C@H](C)NC(=O)[C@H](Cc2ccc3ccccc3c2)NC(=O)[C@H](Cc2ccc(O)cc2)NC(=O)[C@H](CCC(=O)O)NC1=O)[C@@H](C)O [compound 254] (Ac-LTF[R8]EY[2Nal]AQ[Cba][S5]SAA-NH2; staple 4-11)	–	1	7	14	22	11	60	75	3
